This is an account of results in patent US20080255183A1, “N-[HETEROARYLCARBONYL]-3-THIENYL-L-ALANINE DERIVATIVES AS a5beta1 ANTAGONISTS” (ASTRAZENECA AB, priority 2007, published 2008).

As usually defined, the IC50 is the midpoint of a concentration-inhibition curve.

Assay [1] concerns the target recombinant human α5β1 integrin (Homo sapiens, UniProt P05556+P08648). Nature of the assay: In vitro binding assay (a): inhibition of binding of α5β1 integrin to a fragment of human fibronectin (Fn9-10), Origen electrochemiluminescence. Conditions: geometric mean of the measured IC50 values; n given below each value. An excerpt: The assay determined the ability of compounds to inhibit binding of α5β1 integrin to a cognate ligand, a fragment of human fibronectin. The assay used Origen technology (IGEN International) to measure the compound activity. Briefly, α5β1 integrin was coated onto epoxy-paramagnetic beads (Dynal Biotech UK, Bromborough, Wirral, CH62 3QL, UK, Catalogue No 140.11) and biotinylated-fibronectin ligand was coupled to strepatividin labeled Tag-NHS-Ester (BioVeris Corporation, Witney, Oxfordshire, OX28 4GE, UK, Catalogue No 110034). The ruthenium-labeled tag emits an electrochemiluminescence signal upon stimulation which is detected by the Origen reader. Thus, interaction of integrin and ligand causes association of bead and tag, and the resulting electrochemiluminescence signal reflects the level of integrin interaction with fibronectin.
20 μg of recombinant human α5β1 was coated onto 4×10(7) epoxy-paramagnetic beads according to manufacturers instructions at 4° C. for 24 hours. Integrin coating and corresponding activity was subsequently measured for each batch but typically, 25 ng of coated protein was used per assay well.
A DNA fragment encoding the domains 9-10 (amino-acids 1325-1509) of human fibronectin (Swiss-Prot Accession No. P02751) was isolated from cDNA libraries using standard molecular biology and PCR cloning techniques. The cDNA fragment was sub-cloned into a pT73.3 expression vector containing a GST-epitope tag (developed at AstraZeneca; Bagnall et al., Protein Expression and Purification, 2003, 27: 1-11). Following expression in E. coli, the expressed protein, termed Fn9-10, was purified using the GST-tag using standard purification techniques. The recombinant Fn9-10 was subsequently biotinylated using a EZ-link Sulfo-NHS-LC-Biotinylation kit (Perbio Science UK Ltd., Cramlington, Northumberland, NE231WA, UK, Catalogue No. 21335) and made to give a final concentration of approximately 1 mg/mil. Tag-NHS-Ester was labeled with streptavidin by incubation at room temperature following manufacturers instructions and buffer-exchanged into PBS to give a concentration of 0.5 mg/ml. Immediately prior to the assay, biotinylated-Fn9-10 and Streptavidin-labeled Tag were diluted in Assay Buffer to give a final concentrations of 0.6 ug/ml and 1.5 ug/ml respectively. The Fn9-10 and Tag solutions were then mixed together in equal volumes and incubated on ice for at least 30 minutes prior to the assay.
Test compounds were prepared as 10 mM stock solutions in DMSO (Sigma-Aldrich Company Ltd, Gillingham, Dorset SP8 4XT Catalogue No. 154938) and serially diluted with 4% DMSO to give a range of test concentrations at ×4 required final concentration. Aliquots (20 μl) of each compound dilution were placed into each well of a 384-well round bottomed polypropylene plate (Matrix Technologies, Wilmslow, Cheshire, SK9 3LP, Catalogue No. 4340 384). Each plate also contained control wells: maximum signal was created using wells containing 20 μl of 4% DMSO, and minimum signal corresponding to no binding was created using wells containing 20 μl of 80 mM EDTA (Sigma Catalogue No. E7889).
For the assay, 25 ng (20 ul) of a5b1-bead suspension and […] of the Fn9-10/Tag pre-incubated solution were added to each well containing 20 μl of compound or control solution. Assay plates were then incubated at room temperature for a minimum of 6 hours before being analysed on an Origen plate reader. […]

Assay [2] relates to α5β1 integrin mediated adhesion of K562 cells. Put plainly: In vitro cell adhesion assay (b): inhibition of α5β1 integrin mediated adhesion of K562 cells to fibronectin fragment Fn9-10. The format is cell-based, human. An excerpt: The assay determined the ability of compounds to inhibit the α5β1 integrin mediated adhesion of K562 cells to the ligand, a fragment of human fibronectin. The human K562 erythroleukaemia cell line (LGC Promochem, Teddington, Middlesex, UK, Catalogue No. CCL-243) was routinely maintained in RPMI 1640 medium (Sigma-Aldrich Company Ltd, Gillingham, Dorset SP8 4XT, Catalogue No. R0883) containing 10% heat-inactivated foetal calf serum (PAA lab GmbH, Pasching, Austria Catalogue No. PAA-A15-043) and 1% glutamax-1 (Invitrogen Ltd. Paisley, UK Catalogue No. 35050-038) at 37° C. with 5% CO2 at densities between 1×10^5 and 1×10^6 cells/ml.
A DNA fragment encoding the domains 9-10 (amino-acids 1325-1509) of human fibronectin (Swiss-Prot Accession No. P02751) was isolated from cDNA libraries using standard molecular biology and PCR cloning techniques. The cDNA fragment was sub-cloned into a pT7#3.3 expression vector containing a GST-epitope tag (developed at AstraZeneca; Bagnall et al., Protein Expression and Purification, 2003, 27: 1-11), and the fragment termed Fn9-10. Following expression in E. coli, the expressed protein was purified using the GST-tag using standard purification techniques.
For adhesion assay, a 96-well flat bottomed plate (Greiner Bio one ltd., Gloucester GL10 3SX Catalogue No. 655101) was coated overnight at 4° C. with 100 μl of 20 μg/ml Fn9-10 ligand in Dulbecco's PBS (Gibco#14190-94). The plate was then washed twice with 200 μl of PBS and blocked with 100 μl of 3% BSA (SigmaA7888) in PBS for 1 hour at 37° C. The plates were then washed again 3 times with 200 μl of PBS and left empty.
Test compounds were prepared as 10 mM stock solutions in DMSO (Sigma-Aldrich Company Ltd, Gillingham, Dorset SP8 4XT Catalogue No. 154938) and serially diluted with HBSS (Hanks Buffered Salt solution (Gibco Catalogue No. 14170-088)/2% DMSO to give a range of test concentrations at twice required final concentration. Aliquots (50 μl) of each compound dilution were placed into each well of the Fn9-10 coated plates. Each plate also contained control wells: maximum adhesion signal was created using wells containing 50 μl HBSS/2% DMSO, and minimum signal corresponding to no adhesion was created using wells containing 50 μl HBSS/2% DMSO/20 mM EDTA (Sigma Catalogue No. E7889).
The K562 cells were cultured to 1×10^6 cells/ml, and each culture suspension pooled. Cells were centrifuged at 1200 rpm for 2 mins, and the pellets washed with HBSS followed by HBSS/50 mM HEPES (Sigma Catalogue No. H0887). Cell pellets were pooled and re-suspended in HBSS/0.4 mM manganese chloride/50 mM HEPES (MnCl; Sigma Catalogue No. M1787) to give a final concentration of 4×10^6 cells/ml.
The assay was initiated by the addition of 50 μl of cell suspension into each coated well (200,000 cells/well), thus resulting in final desired compound concentration and a final MnCl concentration of 0.2 mM. The plates were incubated for 45 minutes at 37° C. 5% CO2. After this time, the solution was flicked off as waste, and the remaining cell layer carefully washed twice with 200 μl of PBS, and then fixed with 200 μl of 100% ethanol for 30 minutes.
After fixation, the ethanol was flicked off to waste and 100 μl of 0.1% Crystal violet stain was added to each well, and incubated at ambient temperature for 15 minutes. Excess stain was removed by rinsing 3 times under cold slow running water. The plates were blotted over tissue then solubilised by adding 50 μl of 1% Triton X100 (Sigma Catalogue No. T9284) and shaking at 500 rpm for 30 mins on plate shaker. Finally, 100 μl of deionised water was added to each well and the absorbance was determined at 590 nm on a spectrophotometer. The minimum value was subtracted from all values, and the absorbance signal was plotted against compound concentration to generate IC50 data.

Setting [3] is: Homo sapiens, K562, geometric mean of the measured IC50 values, n given below each value, read-out: Adhesion Assay (b) IC50.

Read-outs that look alike come from different tables or passages of the source. Where only a bound is given, the exact number is not on record here.

Chain of recombinant human α5β1 integrin (P08648 42-894 limits assumed): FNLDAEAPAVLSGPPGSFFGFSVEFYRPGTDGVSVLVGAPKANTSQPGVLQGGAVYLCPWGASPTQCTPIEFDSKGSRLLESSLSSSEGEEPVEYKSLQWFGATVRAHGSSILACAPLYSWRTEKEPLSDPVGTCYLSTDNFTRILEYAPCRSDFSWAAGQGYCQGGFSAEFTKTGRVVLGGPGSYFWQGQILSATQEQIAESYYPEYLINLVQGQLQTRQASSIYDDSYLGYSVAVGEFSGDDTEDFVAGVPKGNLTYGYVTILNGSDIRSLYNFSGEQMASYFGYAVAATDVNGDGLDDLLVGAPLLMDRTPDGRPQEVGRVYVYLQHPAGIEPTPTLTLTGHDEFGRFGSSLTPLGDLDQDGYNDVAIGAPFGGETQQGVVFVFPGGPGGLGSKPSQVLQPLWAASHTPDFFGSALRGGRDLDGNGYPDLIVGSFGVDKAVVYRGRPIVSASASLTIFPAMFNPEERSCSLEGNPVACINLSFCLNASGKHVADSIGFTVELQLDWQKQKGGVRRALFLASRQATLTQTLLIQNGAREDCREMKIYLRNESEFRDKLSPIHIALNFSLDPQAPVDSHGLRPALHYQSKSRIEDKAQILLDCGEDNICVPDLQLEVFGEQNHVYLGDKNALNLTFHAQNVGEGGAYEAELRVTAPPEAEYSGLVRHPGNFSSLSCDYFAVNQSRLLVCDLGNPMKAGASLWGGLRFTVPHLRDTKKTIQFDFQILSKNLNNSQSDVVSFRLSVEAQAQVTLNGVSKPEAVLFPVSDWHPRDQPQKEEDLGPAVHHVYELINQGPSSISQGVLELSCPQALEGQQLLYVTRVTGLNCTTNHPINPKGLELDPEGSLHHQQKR
Chain of recombinant human α5β1 integrin (P08648 895-1049 partner limits assumed): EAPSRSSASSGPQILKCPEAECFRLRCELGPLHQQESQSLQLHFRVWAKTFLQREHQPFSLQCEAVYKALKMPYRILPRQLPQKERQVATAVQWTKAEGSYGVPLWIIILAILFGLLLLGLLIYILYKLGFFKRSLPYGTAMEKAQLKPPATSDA
Chain of recombinant human α5β1 integrin (P05556 21-798): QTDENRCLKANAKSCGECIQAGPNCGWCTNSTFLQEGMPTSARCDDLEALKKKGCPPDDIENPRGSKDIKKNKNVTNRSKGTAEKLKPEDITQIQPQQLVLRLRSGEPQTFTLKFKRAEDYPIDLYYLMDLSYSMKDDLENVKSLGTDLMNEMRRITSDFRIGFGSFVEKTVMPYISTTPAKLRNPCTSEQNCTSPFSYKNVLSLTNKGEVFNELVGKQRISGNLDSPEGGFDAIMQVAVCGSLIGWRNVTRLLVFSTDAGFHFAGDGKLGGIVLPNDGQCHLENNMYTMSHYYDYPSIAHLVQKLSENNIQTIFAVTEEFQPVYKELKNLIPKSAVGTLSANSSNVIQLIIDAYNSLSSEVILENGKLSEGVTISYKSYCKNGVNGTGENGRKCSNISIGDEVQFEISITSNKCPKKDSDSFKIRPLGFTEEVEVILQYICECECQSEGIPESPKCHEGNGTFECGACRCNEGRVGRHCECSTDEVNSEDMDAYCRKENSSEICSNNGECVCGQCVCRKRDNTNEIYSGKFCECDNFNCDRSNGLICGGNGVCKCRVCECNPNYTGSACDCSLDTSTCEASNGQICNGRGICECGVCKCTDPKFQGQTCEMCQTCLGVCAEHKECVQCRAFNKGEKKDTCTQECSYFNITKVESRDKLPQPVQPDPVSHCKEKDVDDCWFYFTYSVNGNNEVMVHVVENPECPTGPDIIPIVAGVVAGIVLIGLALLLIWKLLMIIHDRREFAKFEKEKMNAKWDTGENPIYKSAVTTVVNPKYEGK

Turning to `CNc1cccc(CCCc2ccc(C[C@H](NC(=O)c3c(C)noc3C)C(=O)O)s2)n1` [Example 1.1, N-[(3,5-dimethylisoxazol-4-yl)carbonyl]-3-(5-{3-[6-(methylamino)pyridin-2-yl]propyl}thiophen-2-yl)-L-alanine], the values for the IC50 in assay [1] and in assay [2] (setting [3]) were 4 nM and 27 nM, respectively.

Turning to `CNc1cccc(CCCc2ccc(C[C@H](NC(=O)c3c(Cl)cncc3Cl)C(=O)O)s2)n1` [Example 1.2, N-[(3,5-dichloropyridin-4-yl)carbonyl]-3-(5-{3-[6-(methylamino)pyridin-2-yl]propyl}thiophen-2-yl)-L-alanine], the IC50 in assay [1] was found to be 1 nM; in assay [2] (setting [3]), 8 nM.

With `Cc1noc(C)c1C(=O)N[C@@H](Cc1ccc(CCCc2ccc3c(n2)NCCC3)s1)C(=O)O` [Example 2, N-[(3,5-dimethylisoxazol-4-yl)carbonyl]-3-{5-[3-(5,6,7,8-tetrahydro-1,8-naphthyridin-2-yl)propyl]thiophen-2-yl}-L-alanine], the IC50 was under 1 nM in assay [1] and 12 nM in assay [2] (setting [3]).

Turning to `O=C(N[C@@H](Cc1ccc(CCCc2ccc3c(n2)NCCC3)s1)C(=O)O)c1c(Cl)cncc1Cl` [Example 3, N-(3,5-dichloroisonicotinoyl)-3-{5-[3-(5,6,7,8-tetrahydro-1,8-naphthyridin-2-yl)propyl]-thiophen-2-yl}-L-alanine], the IC50 in assay [1] was 0.3 nM; in assay [2] (setting [3]), under 4 nM; in assay [2] (Homo sapiens, K562, single determinations listed in brackets under the geometric mean (n = 3), read-out: Adhesion Assay (b) IC50, individual measured values) it was 5 nM; in assay [2] (single determinations listed in brackets under the geometric mean (n = 3), read-out: Adhesion Assay (b) IC50, individual measured values), under 3 nM.

For the compound `O=C(N[C@@H](Cc1ccc(OCCc2ccc3c(n2)NCCC3)s1)C(=O)O)c1c(Cl)cncc1Cl` [Example 4, N-(3,5-dichloroisonicotinoyl)-3-{5-[2-(5,6,7,8-tetrahydro-1,8-naphthyridin-2-yl)ethoxy]-2-thienyl}-L-alanine], the IC50 in assay [1] was under 1 nM; in assay [2] (setting [3]), under 3 nM.
